Data reported in patent publication US20260232812A1, “BIFUNCTIONAL MOLECULES FOR TARGETED PROTEIN DEGRADATION” (Amphista Therapeutics Limited, priority 2022, published 2026).

Biological target: T1, BRD4 (Homo sapiens, UniProt O60885)
T1 construct: HEK293 containing a HiBit insertion for BRD4; endogenous in cells; host or cells: HEK293 with a HiBiT insertion for BRD4
Assay: Assay 1 - Degradation of HiBit-BRD4 in HEK293
Assay type: cell-based
Conditions: HiBit-BRD4 in HEK293, 6 h treatment
Description: 1.1 Assay 1-Degradation of HiBit-BRD4 in HEK293
HEK293 containing a HiBit insertion for BRD4 were plated in 384-well tissue culture plates at a density of 8×10^4 per well in a volume of 36 μL and incubated overnight at 37° C. and 5% CO2. Wells were treated with test compounds for 6 h prior to addition of the NanoLuc substrate and reading on a […]. Degradation data was plotted and analysed using […] (Graphpad).

Row | DC50 | Dmax | Compound
1 | 25 to 200 nM | 50 to 70% | COc1ccc(C2CC(C(=O)NCCOCCOCCOCCOCCOCCNC(=O)c3ccc(-c4ccc5c(c4)[C@H](Nc4ccc(Cl)cc4)C[C@H](C)N5C(C)=O)cc3)CN(C(=O)/C(C#N)=C/c3ccn(C)n3)C2)cc1 (stereo partly drawn) [Example 13ag]
2 | < 25 nM | ≥ 70% | CC(=O)N1c2ccc(-c3ccc(C(=O)NCCOCCOCCOCCOCCOCCNC(=O)C4CC(C5CCCCC5)CN(C(=O)/C(C#N)=C/c5nccs5)C4)cc3)cc2[C@H](Nc2ccc(Cl)cc2)C[C@@H]1C (stereo partly drawn) [Example 13p]
3 | 25 to 200 nM | ≥ 70% | CC(=O)N1c2ccc(-c3ccc(C(=O)NCCOCCOCCOCCOCCOCCNC(=O)CN4CCC(C5CCCN5C(=O)/C(C#N)=C/c5cscn5)CC4)cc3)cc2[C@H](Nc2ccc(Cl)cc2)C[C@@H]1C (stereo partly drawn) [Example 14a]
4 | 25 to 200 nM | ≥ 70% | CC(=O)N1c2ccc(-c3ccc(C(=O)NCCOCCOCCOCCOCCOCCNC(=O)C4CCCN(C(=O)/C(C#N)=C/C(C)(C)C)C4)cc3)cc2[C@H](Nc2ccc(Cl)cc2)C[C@@H]1C (stereo partly drawn) [Example 13b]
5 | < 25 nM | ≥ 70% | CC(=O)N1c2ccc(-c3ccc(C(=O)NCCOCCOCCOCCOCCOCCNC(=O)C4CC(c5ccccc5)CN(C(=O)/C(C#N)=C/c5nccs5)C4)cc3)cc2[C@H](Nc2ccc(Cl)cc2)C[C@@H]1C (stereo partly drawn) [Example 13z]
6 | 25 to 200 nM | 50 to 70% | CC(=O)N1c2ccc(-c3ccc(C(=O)NCCOCCOCCOCCOCCOCCNC(=O)[C@@H]4CN(C(=O)/C(C#N)=C/c5ccn(C)n5)C[C@H]4C(C)C)cc3)cc2[C@H](Nc2ccc(Cl)cc2)C[C@@H]1C [Example 15h]
7 | 25 to 200 nM | 50 to 70% | CC(=O)N1c2ccc(-c3ccc(C(=O)NCCOCCOCCOCCOCCOCCNC(=O)C4CC(C5CCCCC5)CN(C(=O)/C(C#N)=C/C(C)(C)C)C4)cc3)cc2[C@H](Nc2ccc(Cl)cc2)C[C@@H]1C (stereo partly drawn) [Example 13q]
8 | 25 to 200 nM | ≥ 70% | CC(=O)N1c2ccc(-c3ccc(C(=O)NCCOCCOCCOCCOCCOCCNC(=O)C4CC(C5CCCCC5)CN(C(=O)/C(C#N)=C/c5ccn(C)n5)C4)cc3)cc2[C@H](Nc2ccc(Cl)cc2)C[C@@H]1C (stereo partly drawn) [Example 13r]
9 | 25 to 200 nM | 50 to 70% | CC(=O)N1c2ccc(-c3ccc(C(=O)NCCOCCOCCOCCOCCOCCNC(=O)[C@@H]4CN(C(=O)/C(C#N)=C/C(C)(C)CN5CCOCC5)C[C@H]4CC(C)C)cc3)cc2[C@H](Nc2ccc(Cl)cc2)C[C@@H]1C [Example 15o]
10 | > 200 nM | 50 to 70% | CC(=O)N1c2ccc(-c3ccc(C(=O)NCCOCCOCCOCCOCCOCCNC(=O)[C@@H]4CN(C(=O)/C(C#N)=C/c5ccn(C)n5)C[C@H]4C4CCCCC4)cc3)cc2[C@H](Nc2ccc(Cl)cc2)C[C@@H]1C [Example 15r]
11 | 25 to 200 nM | ≥ 70% | CC(=O)N1c2ccc(-c3ccc(C(=O)NCCOCCOCCOCCOCCOCCNC(=O)[C@@H]4CN(C(=O)/C(C#N)=C/C(C)(C)C)C[C@H]4c4ccc(F)cc4)cc3)cc2[C@H](Nc2ccc(Cl)cc2)C[C@@H]1C [Example 15af]
12 | 25 to 200 nM | 30 to 50% | CC(=O)N1c2ccc(-c3ccc(C(=O)NCCOCCOCCOCCOCCOCCNC(=O)[C@@H]4CN(C(=O)/C(C#N)=C/c5ccn(C)n5)C[C@H]4c4ccc(F)cc4)cc3)cc2[C@H](Nc2ccc(Cl)cc2)C[C@@H]1C [Example 15ag]

Further lines, the compound ahead of its results:

Row | Compound | DC50 | Dmax
13 | CC(=O)N1c2ccc(-c3ccc(C(=O)NCCOCCOCCOCCOCCOCCNC(=O)[C@@H]4CN(C(=O)/C(C#N)=C/C(C)(C)CN5CCOCC5)C[C@H]4C4CCCCC4)cc3)cc2[C@H](Nc2ccc(Cl)cc2)C[C@@H]1C [Example 15t] | 25 to 200 nM | ≥ 70%
14 | CC(=O)N1c2ccc(-c3ccc(C(=O)NCCOCCOCCOCCOCCOCCNC(=O)C4CC(C(C)C)CN(C(=O)/C(C#N)=C/c5nccs5)C4)cc3)cc2[C@H](Nc2ccc(Cl)cc2)C[C@@H]1C (stereo partly drawn) [Example 13k] | < 25 nM | ≥ 70%
15 | CC(=O)N1c2ccc(-c3ccc(C(=O)NCCOCCOCCOCCOCCOCCNC(=O)[C@@H]4CN(C(=O)/C(C#N)=C/C(C)(C)CN5CCOCC5)C[C@H]4c4cccc(C)c4)cc3)cc2[C@H](Nc2ccc(Cl)cc2)C[C@@H]1C [Example 15an] | 25 to 200 nM | 30 to 50%
16 | COc1ccc([C@@H]2CN(C(=O)/C(C#N)=C/c3ccc(F)cc3)C[C@H]2C(=O)NCCOCCOCCOCCOCCOCCNC(=O)c2ccc(-c3ccc4c(c3)[C@H](Nc3ccc(Cl)cc3)C[C@H](C)N4C(C)=O)cc2)cc1 [Example 15ac] | > 200 nM | < 50%
17 | CC(=O)N1c2ccc(-c3ccc(C(=O)NCCOCCOCCOCCOCCOCCNC(=O)[C@@H]4CN(C(=O)/C(C#N)=C/C(C)(C)C)C[C@H]4C(C)C)cc3)cc2[C@H](Nc2ccc(Cl)cc2)C[C@@H]1C [Example 15g] | 25 to 200 nM | ≥ 70%
18 | CC(=O)N1c2ccc(-c3ccc(C(=O)NCCOCCOCCOCCOCCOCCNC(=O)C4CC(C)CN(C(=O)/C(C#N)=C/c5ccc(F)cc5)C4)cc3)cc2[C@H](Nc2ccc(Cl)cc2)C[C@@H]1C (stereo partly drawn) [Example 13i] | > 200 nM | 30 to 50%
19 | CC(=O)N1c2ccc(-c3ccc(C(=O)NCCOCCOCCOCCOCCOCCNC(=O)C4CC(c5cccc(C)c5)CN(C(=O)/C(C#N)=C/c5ccc(F)cc5)C4)cc3)cc2[C@H](Nc2ccc(Cl)cc2)C[C@@H]1C (stereo partly drawn) [Example 13aw] | > 200 nM | < 50%
20 | CC(=O)N1c2ccc(-c3ccc(C(=O)NCCOCCOCCOCCOCCOCCNC(=O)[C@@H]4CN(C(=O)/C(C#N)=C/c5nccs5)C[C@H]4C(C)C)cc3)cc2[C@H](Nc2ccc(Cl)cc2)C[C@@H]1C [Example 15f] | > 200 nM | 30 to 50%
21 | CC(=O)N1c2ccc(-c3ccc(C(=O)NCCOCCOCCOCCOCCOCCNC(=O)[C@@H]4CN(C(=O)/C(C#N)=C/C(C)(C)C)C[C@H]4CC(C)C)cc3)cc2[C@H](Nc2ccc(Cl)cc2)C[C@@H]1C [Example 15l] | 25 to 200 nM | ≥ 70%
22 | CC(=O)N1c2ccc(-c3ccc(C(=O)NCCOCCOCCOCCOCCOCCNC(=O)C4CC(c5ccc(C(F)(F)F)cc5)CN(C(=O)/C(C#N)=C/C(C)(C)C)C4)cc3)cc2[C@H](Nc2ccc(Cl)cc2)C[C@@H]1C (stereo partly drawn) [Example 13ak] | 25 to 200 nM | ≥ 70%
23 | COc1ccc([C@@H]2CN(C(=O)/C(C#N)=C/C(C)(C)C)C[C@H]2C(=O)NCCOCCOCCOCCOCCOCCNC(=O)c2ccc(-c3ccc4c(c3)[C@H](Nc3ccc(Cl)cc3)C[C@H](C)N4C(C)=O)cc2)cc1 [Example 15aa] | 25 to 200 nM | ≥ 70%
24 | COc1ccc([C@@H]2CN(C(=O)/C(C#N)=C/c3nccs3)C[C@H]2C(=O)NCCOCCOCCOCCOCCOCCNC(=O)c2ccc(-c3ccc4c(c3)[C@H](Nc3ccc(Cl)cc3)C[C@H](C)N4C(C)=O)cc2)cc1 [Example 15z] | 25 to 200 nM | 30 to 50%
25 | CC(=O)N1c2ccc(-c3ccc(C(=O)NCCOCCOCCOCCOCCOCCNC(=O)C4CC(c5ccccc5)CN(C(=O)/C(C#N)=C/c5ccn(C)n5)C4)cc3)cc2[C@H](Nc2ccc(Cl)cc2)C[C@@H]1C (stereo partly drawn) [Example 13ab] | > 200 nM | 50 to 70%
26 | CC(=O)N1c2ccc(-c3ccc(C(=O)NCCOCCOCCOCCOCCOCCNC(=O)C4CCCN(C(=O)/C(C#N)=C/c5ccn(C)n5)C4)cc3)cc2[C@H](Nc2ccc(Cl)cc2)C[C@@H]1C (stereo partly drawn) [Example 13c] | 25 to 200 nM | < 50%
27 | CC(=O)N1c2ccc(-c3ccc(C(=O)NCCOCCOCCOCCOCCOCCNC(=O)C4CC(c5cccc(C)c5)CN(C(=O)/C(C#N)=C/C(C)(C)CN5CCOCC5)C4)cc3)cc2[C@H](Nc2ccc(Cl)cc2)C[C@@H]1C (stereo partly drawn) [Example 13ax] | < 25 nM | ≥ 70%
28 | CC(=O)N1c2ccc(-c3ccc(C(=O)NCCOCCOCCOCCOCCOCCNC(=O)[C@@H]4CN(C(=O)/C(C#N)=C/c5nccs5)C[C@H]4CC(C)C)cc3)cc2[C@H](Nc2ccc(Cl)cc2)C[C@@H]1C [Example 15k] | 25 to 200 nM | ≥ 70%
29 | CC(=O)N1c2ccc(-c3ccc(C(=O)NCCOCCOCCOCCOCCOCCNC(=O)[C@@H]4CN(C(=O)/C(C#N)=C/c5nccs5)C[C@H]4C4CCCCC4)cc3)cc2[C@H](Nc2ccc(Cl)cc2)C[C@@H]1C [Example 15p] | 25 to 200 nM | ≥ 70%
30 | CC(=O)N1c2ccc(-c3ccc(C(=O)NCCOCCOCCOCCOCCOCCNC(=O)C4CC(c5cccc(C)c5)CN(C(=O)/C(C#N)=C/C(C)(C)C)C4)cc3)cc2[C@H](Nc2ccc(Cl)cc2)C[C@@H]1C (stereo partly drawn) [Example 13au] | 25 to 200 nM | ≥ 70%
31 | CC(=O)N1c2ccc(-c3ccc(C(=O)NCCOCCOCCOCCOCCOCCNC(=O)[C@@H]4CN(C(=O)/C(C#N)=C/c5ccc(F)cc5)C[C@H]4C4CCCCC4)cc3)cc2[C@H](Nc2ccc(Cl)cc2)C[C@@H]1C [Example 15s] | 25 to 200 nM | 50 to 70%
32 | CC(=O)N1c2ccc(-c3ccc(C(=O)NCCOCCOCCOCCOCCOCCNC(=O)C4CC(c5cccc(C)c5)CN(C(=O)/C(C#N)=C/c5ccn(C)n5)C4)cc3)cc2[C@H](Nc2ccc(Cl)cc2)C[C@@H]1C (stereo partly drawn) [Example 13av] | > 200 nM | 50 to 70%
33 | CC(=O)N1c2ccc(-c3ccc(C(=O)NCCOCCOCCOCCOCCOCCNC(=O)C4CC(c5ccccc5)CN(C(=O)/C(C#N)=C/c5ccc(F)cc5)C4)cc3)cc2[C@H](Nc2ccc(Cl)cc2)C[C@@H]1C (stereo partly drawn) [Example 13ac] | 25 to 200 nM | ≥ 70%
34 | CC(=O)N1c2ccc(-c3ccc(C(=O)NCCOCCOCCOCCOCCOCCNC(=O)[C@@H]4CN(C(=O)/C(C#N)=C/C(C)(C)C)C[C@H]4C4CCCCC4)cc3)cc2[C@H](Nc2ccc(Cl)cc2)C[C@@H]1C [Example 15q] | 25 to 200 nM | ≥ 70%
35 | CC(=O)N1c2ccc(-c3ccc(C(=O)NCCOCCOCCOCCOCCOCCNC(=O)C4CCCN(C(=O)/C(C#N)=C/c5ccc(F)cc5)C4)cc3)cc2[C@H](Nc2ccc(Cl)cc2)C[C@@H]1C (stereo partly drawn) [Example 13d] | > 200 nM | 30 to 50%
36 | COc1ccc(C2CC(C(=O)NCCOCCOCCOCCOCCOCCNC(=O)c3ccc(-c4ccc5c(c4)[C@H](Nc4ccc(Cl)cc4)C[C@H](C)N5C(C)=O)cc3)CN(C(=O)/C(C#N)=C/c3ccc(F)cc3)C2)cc1 (stereo partly drawn) [Example 13ah] | 25 to 200 nM | ≥ 70%
